Measured values reported in the NIST ThermoML archive (doi:10.1021/je7003947).
“And” between values parts separate entries of the source, which are not always exact repeats. Equal entries are not always repeated. ± gives the expanded uncertainty stated by the source.

Conditions: Liquid, Closed cell (Static) method

CC(C)O [propan-2-ol]
vapor or sublimation pressure (323.19 K): 23.6 ± 0.2 kPa

CCO [ethanol]
vapor or sublimation pressure (323.14 K): 29.4 ± 1.4 kPa

CCCC [butane]
vapor or sublimation pressure (323.12 K): 495 ± 2.2 kPa
vapor or sublimation pressure (323.13 K): 495.3 ± 2.2 kPa
vapor or sublimation pressure (323.15 K): 495.6 ± 1.8 kPa and 495.7 ± 2.2 kPa

CO [methanol]
vapor or sublimation pressure (323.13 K): 55.5 ± 1.4 kPa

CCC(C)O (stereo not drawn) [butan-2-ol]
vapor or sublimation pressure (323.17 K): 10.7 ± 1.4 kPa

CC(C)(C)O [2-methylpropan-2-ol]
vapor or sublimation pressure (323.2 K): 23.8 ± 1.4 kPa
